Measurements from patent EP2181708A1, “Use of Valproate for reducing CHOP levels, particularly in a mammal having SCI” (Universitat Autonoma de Barcelona, priority 2008, dated 2010).

Experiments:
[1] = test system: CHOP; test: Western blot of CHOP in spinal cord after contusion SCI; assay type: in vivo, Sprague-Dawley rats
Experimental: (§1) Adult females Sprague-Dawley rats aged 11 weeks (220-250 g) were anesthetized with pentobarbital (40 mg/kg i.p.). When unresponsive, the vertebral column was exposed and a laminectomy carried out at T8-T9 levels. Rostral T7 and caudal T10 vertebral bodies were clamped with Adson stabilizing forceps, and carefully adjusted to level the spinal cord in the horizontal plane. A contusion injury was performed using the Infinite Horizon impactor device (Precision Scientific Instruments, Lexington, KY). The stainless steel impounder tip was placed at 3-4 mm above the exposed spinal cord, and then a fast impact produced applying forces of 150 or 250 kilodynes (KDyn) to the exposed spinal cord. The wound was sutured with 5-0 silk thread in the muscular plane and the skin was closed with small clips and disinfected with povidone iodine solution. Sham-operated animals received the same surgical procedure but sustained no impact injury; the spinal cord was left exposed for 5 min. The animals were maintained in a warm environment until full recovery, and received preventive antibiotic (amoxicyline) and analgesic (buprenorphine) treatment. All animals were kept under standard conditions of light and temperature and fed with food and water ad libitum. The procedures involving animals were approved by the Ethics Committee of our institution, and followed the European Communities Council Directive 86/609/EEC.
VPA was intraperitoneally administered at an initial dose of 150 mg/kg by 3 h after surgery, and then a dose of 300 mg/Kg either every 24 h or every 12 h during the first week post-surgery, following by a dose of 300 mg/Kg every 24 h for the next two weeks. Groups of rats subjected to SCI or sham operation received VPA or saline injections following the same regime. […]
(§2) Rats were re-anesthetised and decapitated at 3 dpo for sample preparation. […] After clearance, protein concentration was measured by the BCA method assay (BCA Protein Assay kit, Pierce). […]

[2] = test system: acetylated histone-3 (acetyl-H3); test: Western blot of acetylated histone-3 in spinal cord after contusion SCI; assay type: in vivo, Sprague-Dawley rats; conditions: 250 Kdyn contusion, VPA every 12 h, vs SCI without VPA
Experimental: as §1, with “All animals were kept under standard conditions of light and temperature and fed with food and water ad libitum. The procedures involving animals were approved by the Ethics Committee of our institution, and followed the European Communities Council Directive 86/609/EEC.” left out
as §2

[3] = test system: CHOP; test: Tunicamycin-induced ER stress in primary fibroblasts, Western blot of CHOP; assay type: cell-based, rat; conditions: primary fibroblast cells, 3 µg/ml tunicamycin, valproate
Experimental: Primary fibroblasts obtained from rat sciatic nerve and HEK cell line were cultured in Dulbecco's modified Eagle's/F-12 medium supplemented with 10% fetal calf serum (Gibco). Fibroblasts were treated with 3 µg/mL of tunicamycin (Sigma) for 4 h and harvested in RIPA buffer for protein extraction.
We have recently reported that SCI triggers an unbalanced UPR characterized by unchanged levels of BiP/Grp78 levels but progressive accumulation of the pro-apoptotic protein CHOP, with maximal CHOP levels found at 3 days post-injury in the weight-drop contusion model (Penas et al, 2007). In this study, we used a contusion model using an impactor device to specifically control the force (either 150 KDyn or 250 KDyn) to be apply on the T8 laminectomized spinal cord segment. We analyzed the spinal cord 8 mm-length segment that includes the lesion epicenter from sham-operated animals and from VPA treated or vehicle treated SCI animals at 3 days after operation. […] Thus, we increased the amount of VPA administered to 300 mg/kg every 12 h, as reported previously for a brain stroke rat model (Kim et al, 2007), and analyzed the effect using two different contusion forces of 150 and 250 KDyn. We observed that the levels of CHOP were directly proportional to the severity of the lesion; the more severe, the higher the level. […]

[4] = test system: spinal cord; test: Histological analysis of lesion volume, tissue sparing and myelin after SCI; assay type: in vivo, Sprague-Dawley rats
Experimental: as §1
VPA was intraperitoneally administered at an initial dose of 150 mg/kg by 3 h after surgery, and then a dose of 300 mg/Kg either every 24 h or every 12 h during the first week post-surgery, following by a dose of 300 mg/Kg every 24 h for the next two weeks. Groups of rats subjected to SCI or sham operation received VPA or saline injections following the same regime. Experiments were approved by the Ethics Committee at the Universitat Autònoma de Barcelona, and followed the European Communities Council Directive 86/609/EEC
At 3 or 35 days post-surgery, rats were perfused transcardially with 4% paraformaldehyde in 0.1M phosphate buffer saline (PBS, pH 7.4). […]

[5] = epicenter and adjacent section of the spinal cord, 35 days

Structure (SMILES): CCCC(CCC)C(=O)O [VPA, 2-propylpentanoic acid]
- CHOP levels ([1]; VPA 300 mg/kg every 12 h i.p., contusion 150 and 250 KDyn, three days post-injury): significantly reduced
- CHOP level reduction, 250 KDyn versus 150 KDyn contusion ([1]; VPA 300 mg/kg every 12 h i.p., three days post-injury): more pronounced
- CHOP levels ([1]; VPA 300mg/kg once per day i.p., vs saline, 3 days post-injury): did not produce changes
- levels of acetylated H3 [2]: further increased
- CHOP accumulation promoted by tunicamycin [3]: can be attenuated
- extent of myelin loss ([4]; 2 mm from the epicenter, cresyl violet and luxol fast blue, 35 dpo): markedly reduced
- area of total tissue preserved [4, 5]: significantly increased
- area of white matter preserved [4, 5]: significantly increased
